Results as given in ChEMBL document CHEMBL1201862, “PubChem BioAssay data set” (2004).
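Dose response: 5 concentrations. Exposure: 48 h. Format: 96-well plates. Endpoint: linear interpolation; highest concentration if not reached. GI50: concentration for 50% inhibition of growth.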 The source made the active and inactive calls. Cut-off read from the data, not from the text of the source: active = GI50 up to about 1.1 µM and inactive = higher.

Key:
Experiment in all cases: NCI-60 cell line screen, 48 h
[1] = test system: 786-0
[2] = test system: A498
[3] = test system: A549
[4] = test system: ACHN
[5] = test system: BT-549
[6] = test system: CAKI-1
[7] = test system: CCRF-CEM
[8] = test system: COLO 205
[9] = test system: DU-145
[10] = test system: EKVX
[11] = test system: HCC 2998
[12] = test system: HCT-15
[13] = test system: HL-60
[14] = test system: HOP-62
[15] = test system: HOP-92
[16] = test system: HT-29
[17] = test system: Hs-578T
[18] = test system: IGROV-1
[19] = test system: K562
[20] = test system: KM12
[21] = test system: LOX IMVI
[22] = test system: M14
[23] = test system: MCF7
[24] = test system: MDA-MB-231
[25] = test system: MDA-MB-435
[26] = test system: MDA-N
[27] = test system: MOLT-4
[28] = test system: Malme-3M
[29] = test system: NCI-H226
[30] = test system: NCI-H23
[31] = test system: NCI-H460
[32] = test system: NCI-H522
[33] = test system: NCI/ADR-RES
[34] = test system: OVCAR-3
[35] = test system: OVCAR-4
[36] = test system: OVCAR-5
[37] = test system: OVCAR-8
[38] = test system: PC-3
[39] = test system: RPMI-8226
[40] = test system: RXF 393
[41] = test system: SF-268
[42] = test system: SF-295
[43] = test system: SF-539
[44] = test system: SK-MEL-28
[45] = test system: SK-MEL-2
[46] = test system: SK-MEL-5
[47] = test system: SK-OV-3
[48] = test system: SN12C
[49] = test system: SNB-19
[50] = test system: SNB-75
[51] = test system: SR
[52] = test system: SW-620
[53] = test system: T47D
[54] = test system: TK-10
[55] = test system: U-251
[56] = test system: UACC-257
[57] = test system: UACC-62
[58] = test system: UO-31
[59] = test system: HCT-116

Measured: GI50

COC(=O)c1csc([C@@H](OC(=O)[C@H](C)[C@H](CCCC(C)(Cl)Cl)OC(=O)c2csc([C@H](O)CO)n2)C(C)C)n1
16.4 µM: [12]
inactive: [1] 14 µM | [2] 18.3 µM | [3] 17.9 µM | [4] 13.1 µM | [5] 17.1 µM | [6] 17.7 µM | [7] 17.2 µM | [8] 17.8 µM | [9] 12.3 µM | [10] 17.1 µM | [11] 10.2 µM | [13] 17.9 µM | [14] 18.4 µM | [15] 10.7 µM | [16] 17.6 µM | [17] 2.11 µM | [18] 11.3 µM | [19] 16.4 µM | [20] 15.7 µM | [21] 10.5 µM | [22] 17.8 µM | [23] 18 µM | [24] 17.6 µM | [25] 13.6 µM | [26] 7.94 µM | [27] 16.3 µM | [28] 17.3 µM | [29] 19.2 µM | [30] 16.4 µM | [31] 9.89 µM | [32] 16.8 µM | [33] 18.3 µM | [34] 15 µM | [35] 10 µM | [36] 15.5 µM | [37] 4.61 µM | [38] 13.6 µM | [39] 15.2 µM | [40] 1.89 µM | [41] 17.7 µM | [42] 15.7 µM | [43] 2.92 µM | [44] 11.8 µM | [45] 15.3 µM | [46] 17.9 µM | [47] 16.2 µM | [48] 1.99 µM | [49] 13.6 µM | [50] 1.39 µM | [51] 13.7 µM | [52] 17.9 µM | [53] 20.7 µM | [54] 12.4 µM | [55] 17.8 µM | [56] 11 µM | [57] 11.6 µM | [58] 6.93 µM

CSc1cc(N)ccc1/N=N/c1ccc(S(N)(=O)=O)cc1
21.8 µM: [12]
inactive: [1] 26 µM | [2] 48 µM | [3] 22.1 µM | [4] 27.2 µM | [5] 6.4 µM | [6] 36.1 µM | [7] 27.3 µM | [8] 25.8 µM | [9] 34.9 µM | [10] 31 µM | [11] 53.6 µM | [59] 30.5 µM | [13] 25.1 µM | [14] 29.4 µM | [15] 21.8 µM | [16] 30.3 µM | [17] 23.5 µM | [18] 23.1 µM | [19] 38.1 µM | [20] 30.4 µM | [21] 29.6 µM | [22] 38.1 µM | [23] 37.3 µM | [24] 16.1 µM | [25] 27.4 µM | [26] 61.7 µM | [27] 31.3 µM | [28] 24.7 µM | [29] 13.2 µM | [30] 33.4 µM | [31] 24.2 µM | [32] 17.7 µM | [33] 29.6 µM | [34] 25.1 µM | [35] 27.5 µM | [36] 45 µM | [37] 22.3 µM | [38] 32.7 µM | [39] 16.4 µM | [40] 30.5 µM | [41] 37.8 µM | [42] 22.1 µM | [43] 31.5 µM | [44] 25.5 µM | [45] 24.2 µM | [46] 15.3 µM | [47] 35.8 µM | [48] 27.5 µM | [49] 55.3 µM | [50] 15.5 µM | [51] 34.6 µM | [52] 41.7 µM | [53] 18.8 µM | [54] 29.4 µM | [55] 26.9 µM | [56] 80 µM | [57] 15.9 µM | [58] 16.5 µM
